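In this assay, cells in 96-well plates receive the compound at five concentrations for 48 hours. Endpoints are linearly interpolated between the surrounding concentrations. TGI: concentration producing complete growth inhibition.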
Tests used:
Test in all cases: DTP human tumour cell line panel, 48 h
OVCAR-4 ovarian = system: OVCAR-4 ovarian
PC-3 prostate = system: PC-3 prostate
NCI/ADR-RES ovarian = system: NCI/ADR-RES ovarian
SF-268 CNS = system: SF-268 CNS
UO-31 renal = system: UO-31 renal
U251 CNS = system: U251 CNS
SN12C renal = system: SN12C renal
NCI-H23 lung = system: NCI-H23 lung
SNB-19 CNS = system: SNB-19 CNS
M14 melanoma = system: M14 melanoma
MDA-MB-435 = system: MDA-MB-435
A498 renal = system: A498 renal
HT29 colon = system: HT29 colon
SR leukemia = system: SR leukemia
RXF 393 renal = system: RXF 393 renal
COLO 205 colon = system: COLO 205 colon
ACHN renal = system: ACHN renal
MDA-N = system: MDA-N
SK-MEL-5 melanoma = system: SK-MEL-5 melanoma

Compound	TGI (OVCAR-4 ovarian)	TGI (PC-3 prostate)	TGI (NCI/ADR-RES ovarian)	TGI (SF-268 CNS)	TGI (UO-31 renal)	TGI (U251 CNS)	TGI (SN12C renal)	TGI (NCI-H23 lung)	TGI (SNB-19 CNS)	TGI (M14 melanoma)	TGI (MDA-MB-435)	TGI (A498 renal)	TGI (HT29 colon)	TGI (SR leukemia)	TGI (RXF 393 renal)	TGI (COLO 205 colon)	TGI (ACHN renal)	TGI (MDA-N)	TGI (SK-MEL-5 melanoma)
CCOC1(OCC)N=C(N)C2(C#N)C3(C(=O)N(C(C)C)N=C3C)C12C#N (stereo unspecified)	> 100 µM	> 100 µM	> 100 µM	> 100 µM	> 100 µM	> 100 µM	> 100 µM	> 100 µM	> 100 µM	> 100 µM	> 100 µM	> 100 µM	> 100 µM	> 100 µM	> 100 µM	> 100 µM	> 100 µM	–	–
COc1ccccc1/C=C/c1c(N)ncnc1Nc1cccc(Cl)c1	34.4 µM	0.97 µM	–	38.8 µM	57.1 µM	34.4 µM	30.9 µM	47 µM	47.1 µM	51.8 µM	33.1 µM	30.9 µM	87.2 µM	> 100 µM	38.4 µM	–	26 µM	55.8 µM	43.4 µM
O=C1C(=c2cc3c(c4ccccc24)=NC24CCCCC2C(c2ccccc2)C=C(c2ccccc2)N34)C(=O)c2ccccc21 (stereo unspecified)	68.3 µM	> 100 µM	–	> 100 µM	> 100 µM	> 100 µM	> 100 µM	–	> 100 µM	> 100 µM	70.8 µM	> 100 µM	> 100 µM	79.7 µM	49 µM	> 100 µM	> 100 µM	> 100 µM	> 100 µM
CC(=O)C1=C(C)N2C(=NC3=C(CCc4ccccc43)C2c2cccc(Br)c2)S1 (stereo unspecified)	> 100 µM	> 100 µM	> 100 µM	> 100 µM	> 100 µM	> 100 µM	> 100 µM	> 100 µM	> 100 µM	> 100 µM	> 100 µM	> 100 µM	> 100 µM	–	> 100 µM	> 100 µM	> 100 µM	> 100 µM	> 100 µM
COC(=O)C(Cc1c(C2Nc3ccccc3C2CC(NC(C)=O)C(=O)OC)[nH]c2ccccc12)NC(C)=O (stereo unspecified)	–	> 100 µM	> 100 µM	> 100 µM	> 100 µM	> 100 µM	> 100 µM	> 100 µM	> 100 µM	> 100 µM	> 100 µM	> 100 µM	> 100 µM	–	> 100 µM	> 100 µM	> 100 µM	> 100 µM	> 100 µM
NC(=O)CCC(CCC(N)=O)(CCC(N)=O)[N+](=O)[O-]	–	> 100 µM	> 100 µM	> 100 µM	> 100 µM	> 100 µM	> 100 µM	> 100 µM	> 100 µM	> 100 µM	> 100 µM	–	> 100 µM	–	> 100 µM	> 100 µM	> 100 µM	> 100 µM	> 100 µM
CC(C)(C)OC(=O)CC(NC(=O)OC(C)(C)C)C(=O)NC(C(=O)O)C(O)c1ccccc1 (stereo unspecified)	> 100 µM	> 100 µM	> 100 µM	> 100 µM	> 100 µM	> 100 µM	–	> 100 µM	> 100 µM	> 100 µM	> 100 µM	> 100 µM	> 100 µM	–	> 100 µM	> 100 µM	> 100 µM	> 100 µM	> 100 µM
CC(C)(C)C1(O)C=C(O)C(=O)N1NC(=O)c1ccccc1Nc1ccccc1 (stereo unspecified)	> 100 µM	> 100 µM	> 100 µM	> 100 µM	> 100 µM	> 100 µM	> 100 µM	> 100 µM	> 100 µM	> 100 µM	> 100 µM	> 100 µM	> 100 µM	–	> 100 µM	> 100 µM	> 100 µM	> 100 µM	> 100 µM
C=C1CC2CC(=O)C(O)C(C1)C2 (stereo unspecified)	–	–	> 100 µM	> 100 µM	> 100 µM	–	> 100 µM	> 100 µM	–	> 100 µM	> 100 µM	> 100 µM	> 100 µM	> 100 µM	> 100 µM	> 100 µM	> 100 µM	> 100 µM	> 100 µM
Cn1c(=O)n2c(-c3ccccc3)c(-c3ccccc3)n2c1=O	> 100 µM	> 100 µM	> 100 µM	–	> 100 µM	> 100 µM	> 100 µM	> 100 µM	> 100 µM	> 100 µM	–	> 100 µM	> 100 µM	> 100 µM	> 100 µM	> 100 µM	> 100 µM	> 100 µM	> 100 µM
O=C1C2=Cc3ccccc3OC2(O)Oc2ccc(O)cc21 (stereo unspecified)	–	> 100 µM	> 100 µM	> 100 µM	–	> 100 µM	> 100 µM	> 100 µM	–	> 100 µM	> 100 µM	> 100 µM	> 100 µM	–	> 100 µM	> 100 µM	29.6 µM	> 100 µM	> 100 µM
O=P(c1ccccc1)(c1ccccc1)c1ccc2c(c1)OCCOCCOCCOCCO2	–	> 100 µM	–	> 100 µM	> 100 µM	–	> 100 µM	> 100 µM	> 100 µM	> 100 µM	> 100 µM	> 100 µM	–	> 100 µM	–	> 100 µM	> 100 µM	> 100 µM	> 100 µM
COc1cc2c(cc1OC)-c1c(oc3cc(OC4OC(CO)C(O)C(O)C4O)c(OC)cc3c1=O)C(O)O2 (stereo unspecified)	> 100 µM	> 100 µM	> 100 µM	> 100 µM	> 100 µM	> 100 µM	> 100 µM	> 100 µM	> 100 µM	> 100 µM	> 100 µM	> 100 µM	> 100 µM	–	> 100 µM	> 100 µM	> 100 µM	–	> 100 µM
CN(C)CCNC1=CC(=O)c2nc3ccccc3c3ccnc1c23	16.6 µM	17.2 µM	28.5 µM	21.5 µM	23.8 µM	25.5 µM	20.3 µM	18.9 µM	29.6 µM	21.6 µM	20 µM	–	14.2 µM	9.05 µM	–	9.21 µM	15 µM	20.7 µM	–

— PubChem BioAssay (NCI)
